# Test results reported in patent US6773702B2, “Use of combretastatin A4 and its prodrugs as an immune enhancing therapy” (OXiGENE, Inc., priority 2000, dated 2004).
# Where “and” joins values, the source holds several entries; their conditions need not be identical. Equal values may be shown once.
# What was measured:
# [1] = cited from earlier work
# [2] = test system: spleen cells isolated from BN7005-H1D2 tumor-bearing rats; experiment: In vitro proliferative response of spleen cells after 20 days of in vivo CA4P at 5 or 2 mg/kg (FIG. 2A); design: species or system rat; conditions: 20 days daily treatment, H1D2-WT or IL-18 transfectant stimulator cells
# Method: FIG. 2A illustrates the in vitro immune proliferative response of spleen cells isolated from BN7005-H1D2 tumor-bearing rats previously treated with a combination of active immunomodulatory gene therapy (IL-18 and IL-12 transfected tumor cells) and CA4P (5 or 2 mg/kg) in vivo. The cells were stimulated with untransfected (H1D2-WT) tumor cells or IL-18 (H1D2-IL18) transfected tumor cells after 20 days of tumor growth.
# Results of in vitro studies indicate that the dose of Combretastatin A4 Prodrug that is administered is critical for obtaining a specific immunological effect. […] Proliferation of spleen immune cells was monitored by 3-H-thymidine incorporation (CPM) after 5 days incubation. […] Eight μm cryosections were examined directly in a fluorescence microscope and vessel volume was determined (Springer, MP., Ip, TK., and Blau, HM). Angiogenesis monitored by perfusion with space-filling microbead suspension (Mol. Ther. 1: 82-87, 2000). […]
# In a second experiment represented in FIG. 2A, wild type H1D2-WT or IL-18 transfected (H1D2-IL-18) cells were used as immune stimulants to assess the in vitro proliferative response of spleen cells isolated from tumor-bearing rats previously treated in vivo with 2 or 5 mg/kg combretastatin A4 prodrug for 20 days. The spleen cells were cultured in RPMI medium and their growth monitored by the incorporation of tritiated thymidine into DNA. […]
# [3] = test system: spleen cells isolated from BN7005-H1D2 tumor-bearing rats; experiment: In vitro proliferation of spleen cells from vaccinated tumor-bearing rats treated in vivo with CA4P (FIG. 1); design: species or system rat; conditions: CA4P 2 mg/kg 5 days a week + vaccination
# [4] = test system: BT4Cn tumor blood vessels; experiment: Tumor vascular shut-down, open tumor blood vessels 24 h after CA4P (FIG. 2B); type: in vivo, rat
# Method: FIG. 2B illustrates the percentage of open tumor blood vessels in an excised tumor 24 hours after administration of various doses of CA4P to a BT4Cn tumor bearing rat.
# Results of in vitro studies indicate that the dose of Combretastatin A4 Prodrug that is administered is critical for obtaining a specific immunological effect. The specific immunomodulatory properties of CA4P are only observed at a low dosage, whereas higher doses fail to remove the immunosuppressive effects of the established tumor or induce suppression of lymphocyte activity. […] Proliferation of spleen immune cells was monitored by 3-H-thymidine incorporation (CPM) after 5 days incubation. […] An analysis of tumor pathology was performed on BT4Cn tumor-bearing rats when the tumor had growth to a size of 300 mm^3. Rats received single intraperitoneal injections of various doses of CA4P. Twenty-four hours later they were injected with 0.25 ml of Fluo-Spheres bead in the tail vein and sacrificed after 3 min. Tumors were removed and prepared for cryosection. Eight μm cryosections were examined directly in a fluorescence microscope and vessel volume was determined (Springer, MP., Ip, TK., and Blau, HM). Angiogenesis monitored by perfusion with space-filling microbead suspension (Mol. Ther. 1: 82-87, 2000). […] Thus in a preferred embodiment, the dose at which CA4P is administered to achieve a desired immune enhancing effect without vascular shutdown is less than 5 mg/kg.
# [5] = test system: colon carcinoma H1D2-WT cells; experiment: Intrahepatic growth of colon carcinoma H1D2-WT, tumor volume after 4 weeks (Table 2); type: in vivo, rat
# Method: Table 2 is a summary of intrahepatic growth of colon carcinoma H1D2-WT cells treated with low dose CA4P alone or in combination with immunomodulatory gene therapy, and with or without additional inhibitor. Tumor growth was initiated by inoculation beneath the liver capsule with 1×10^5 in vitro cultured BN7005-H1D2 wild type cells suspended in 50 μl RPMI medium. Drug administration (CA4P, L-NAME, Indomethacin) was initiated after 7-8 days when the tumor was macroscopically visible. CA4P was given intraperitoneally, 5 days a week. L-NAME was given by gavage twice a week on the day of immunization and the day after. Indomethacin was given by gavage 48 h after vaccination at a dose of 0.33 mg/kg. Immunization was performed by intraperitoneal administration on day 10 and day 17 using BN7005-H1D2 cells transfected with IL-18 or a mixture of IL-18 and IL-12 transfectants (2-3×10^6 viable cells per rat).
# Wild-type (BN7005-H1D2) colon cancer cells (1×10^5 cells) were inoculated intrahepatically and CA4P drug treatment (2 and 5 mg/kg) began daily when the tumors were macroscopically visible. On day 10 and 17, vaccinations were administered intraperitoneally using […] cells transfected with IL-18 transfected cells or mixtures of IL-18 and IL-12 transfected cells (2-3×10^6 viable cells per rat). L-NAME and Indomethacin were also administered by gavage 48 h after vaccination at a dose of 0.33 mg/kg.
# [6] = CA4-P 2 mg/kg alone, no L-NAME, no immunization
# [7] = CA4-P 2 mg/kg i.p. 5 days a week, no L-NAME, with immunization, phosphate disodium salt
# [8] = CA4-P 2 mg/kg, with L-NAME gavage, with immunization
# [9] = CA4-P 5 mg/kg, with L-NAME gavage, with immunization, phosphate disodium salt
smiles,measurement,setting,value
"COc1ccc(/C=C\c2cc(OC)c(OC)c(OC)c2)cc1OP(=O)([O-])[O-].[Na+].[Na+] [CA4P, CA4 phosphate disodium salt]",Solubility in water,[1],readily soluble in water
same,Proliferative response of spleen cells (3-H-thymidine incorporation),[2]; CA4P 2 mg/kg,particularly effective in enhancing the anti-tumor immune response
same,Proliferative response of spleen cells (3-H-thymidine incorporation),[2]; CA4P 5 mg/kg,some enhancement of a proliferative response
same,Rats responding to SEA,"[3]; spleen cells challenged with SEA, 5 of 8 (untreated 13%)",63%
same,Samples responding to tumor antigen challenge,"[3]; spleen cells stimulated with autologous tumor cells, 7 of 18 (immunization alone 8%)",39%
same,Vascular shutdown,[4]; 2 mg/kg,no vascular shut down could be observed
same,Vascular shutdown,"[4]; doses below 4 mg/kg, single i.p. injection, 24 h",no significant vascular shutdown
same,Toxicity to microvessels and immune effect,"[4]; higher doses, 4-100 mg/kg in the rat",toxic to microvessels and immunosuppressive
same,"Tumor volume after 4 weeks, Mean",[5]; [6],3834 mm^3
same,"Tumor volume after 4 weeks, Median",[5]; [6],4037 mm^3
same,"Tumor volume after 4 weeks, Mean",[5]; [7],3918 mm^3 and 5755 mm^3 and 5135 mm^3 and 3698 mm^3
same,"Tumor volume after 4 weeks, Median",[5]; [7],3780 mm^3 and 6195 mm^3 and 4275 mm^3 and 3393 mm^3
same,"Tumor volume after 4 weeks, Median","[5]; CA4-P 2 mg/kg, with L-NAME (+Indomethacin 0.33 mg/kg), with immunization, phosphate disodium salt",2867 mm^3 and 1463 mm^3 and 1962 mm^3
same,"Tumor volume after 4 weeks, Mean",[5]; [8],5064 mm^3
same,"Tumor volume after 4 weeks, Median",[5]; [8],4792 mm^3
same,"Tumor volume after 4 weeks, Mean",[5]; [9],512 mm^3 and 561 mm^3
same,"Tumor volume after 4 weeks, Median",[5]; [9],426 mm^3 and 367 mm^3
